# Test results from US4923963A, “Bradykinin antagonist peptides” (Nova Technology Limited Partnership, priority 1987, dated 1990).
# Square brackets hold non-standard residues; d marks the D form. Peptide text beside a SMILES is read from it. d2Nal = N[C@H](Cc1ccc2ccccc2c1)C(=O)O; Hyp = O=C(O)[C@@H]1C[C@@H](O)CN1; 2Thi = N[C@@H](Cc1cccs1)C(=O)O; d2Thi = N[C@H](Cc1cccs1)C(=O)O
# How the values were obtained:
# [1] = tested on: rat blood pressure; assay: effects on blood pressure in the anesthetized rat (RBP), intraaortic and intravenous bolus; format: in vivo; design: RBP-IA: activity class / RBP-IV: activity class: scale not given here; conditions: for RBP-IA: activity class / RBP-IV: activity class: rat blood pressure; for RBP-IA: activity class: intraaortic bolus; for RBP-IV: activity class: intravenous bolus
# Method: The in vivo effects of bradykinin antagonists on blood pressure in the anesthetized rat are determined according to the assay described by Roblero, Ryan and Stewart (Res. Commun. Pathol. Pharmacol. 6:207, 1973). The antagonists also produce inhibition of the bradykinin response when injected as a bolus admixture of bradykinin plus antagonist by either the ia or iv route of administration.
# [2] = tested on: isolated rat uterus; format: cell-based; conditions: for pA2 /RUT: activity class: isolated rat uterus, not quantitated
# Procedure, shortened: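 Antagonism of bradykinin-induced contraction in isolated rat uterus (natural or induced estrus) and guinea pig ileum. Antagonist preincubated 30 s before a double-ED50 bradykinin dose, with the dose raised until the response fell to that of a single ED50. pA2 is the negative log molar antagonist concentration achieving this (Schild method).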
# [3] = tested on: isolated guinea pig ileum; format: cell-based; design: pA2 /GPI: activity class: scale not given here; conditions: isolated guinea pig ileum; for pA2 /GPI: activity class: not quantitated
# Method: The bradykinin antagonists were assayed on isolated rat uterus in natural or induced estrus and on guinea pig ileum, according to the commonly accepted assay methods for bradykinin and related kinins as described by Trautschold (Handbook of Expt. Pharmacol. Vol 25, Springer Verlag, pp. 53-55, 1970) for inhibition of the myotropic activity of bradykinin. The inhibition potencies, as determined according to the commonly accepted manner described by Schild for antagonists of biologically active compounds (Br. J. Pharmacol. 2:189, 1947), and expressed as pA2 values are determined on isolated rat uterus (RUT) and isolated guinea pig ileum (GPI). In the assays, a dose-response curve is determined for the reference substance bradykinin. The dose of bradykinin which produced a half maximal contraction of tissue is the ED50 dose. An amount of bradykinin equivalent to twice the ED50 dose is administered to the tissue 30 seconds after the start of incubation of the tissue with a dose of antagonist. Doses of antagonist are increased in this protocol until pre-incubation with a dose of antagonist reduces the contraction in response to the double ED50 dose of bradykinin to response of a single ED50 dose of bradykinin. The pA2 value represents the negative logarithm of the molar concentration of antagonist necessary to reduce the response of a double ED50 dose of bradykinin to that of an ED50 dose. One unit of pA2 value represents an order of magnitude change in potency. For comparison, the negative log of the dose of BK, the dose which causes half maximal contraction of the tissues, is commonly known as the pD2 value. The pD2 value for bradykinin is 7.9 on the rat uterus and 7.4 on the guinea pig ileum.
Structure (SMILES),RBP-IA: activity class [1],RBP-IV: activity class [1],pA2 /RUT: activity class [2],pA2 /GPI: activity class [3],pA2 /GPI: agonist potency as percent of BK potency [3] [%],pA2 /RUT (antagonist potency) [2],"% DESTR (metabolic breakdown of BK-like agonists in RBP assay) ([1]; rat, in vivo) [%]","RBP-IA: agonist potency as percent of BK potency ([1]; rat, in vivo) [%]","RBP-IV: agonist potency as percent of BK potency ([1]; rat, in vivo, iv) [%]",pA2 /RUT: agonist potency as percent of BK potency [2] [%]
"CC(C)[C@@H](N)C(=O)N1CCC[C@H]1C(=O)N1C[C@H](O)C[C@H]1C(=O)NCC(=O)N[C@@H](Cc1ccccc1)C(=O)N[C@@H](CO)C(=O)N[C@H](Cc1ccccc1)C(=O)N[C@@H](Cc1ccccc1)C(=O)N[C@@H](CCCNC(=N)N)C(=O)O [Example 15, DVal-Pro-Hyp-Gly-Phe-Ser-DPhe-Phe-Arg] (H-[dV]P[Hyp]GFS[dF]FR-OH)",0,0,0,0,,,,,,
"N=C(N)NCCC[C@H](NC(=O)[C@H](Cc1ccccc1)NC(=O)[C@@H](Cc1ccccc1)NC(=O)[C@H](CO)NC(=O)[C@H](Cc1ccccc1)NC(=O)CNC(=O)[C@@H]1C[C@@H](O)CN1C(=O)[C@@H]1CCCN1C(=O)[C@H](N)Cc1ccc2ccccc2c1)C(=O)O [Example 30, DNa]-Pro-Hyp-Gly-Phe-Ser-DPhe-Phe-Arg] (H-[d2Nal]P[Hyp]GFS[dF]FR-OH)",0,0,0,,0.1,,,,,
"N=C(N)NCCC[C@H](NC(=O)[C@H](Cc1ccccc1)NC(=O)[C@@H](Cc1cccs1)NC(=O)[C@H](CO)NC(=O)[C@H](Cc1ccccc1)NC(=O)CNC(=O)[C@@H]1CCCN1C(=O)[C@@H]1CCCN1C(=O)[C@H](N)Cc1cccs1)C(=O)O [Example 33, DThi-Pro-Pro-Gly-Phe-Ser-DThi-Phe-Arg] (H-[d2Thi]PPGFS[d2Thi]FR-OH)",0,0,0,0,,,,,,
"N=C(N)NCCC[C@@H](N)C(=O)N[C@H](Cc1cccs1)C(=O)N1CCC[C@H]1C(=O)N1CCC[C@H]1C(=O)NCC(=O)N[C@@H](Cc1ccccc1)C(=O)N[C@@H](CO)C(=O)N[C@H](Cc1cccs1)C(=O)N[C@@H](Cc1ccccc1)C(=O)N[C@@H](CCCNC(=N)N)C(=O)O [Example 35, DArg-DThi-Pro-Pro-Gly-Phe-Ser-DThi-Phe-Arg] (H-[dR][d2Thi]PPGFS[d2Thi]FR-OH)",0,0,0,0,,,,,,
"N=C(N)NCCC[C@@H](N)C(=O)N[C@H](Cc1ccc2ccccc2c1)C(=O)N1CCC[C@H]1C(=O)N1CCC[C@H]1C(=O)NCC(=O)N[C@@H](Cc1ccccc1)C(=O)N[C@@H](CO)C(=O)N[C@H](Cc1cccs1)C(=O)N[C@@H](Cc1ccccc1)C(=O)N[C@@H](CCCNC(=N)N)C(=O)O [Example 39, DArg-DNal-Pro-Pro-Gly-Phe-Ser-DThi-Phe-Arg] (H-[dR][d2Nal]PPGFS[d2Thi]FR-OH)",0,0,,0,,5.6,,,,
"N=C(N)NCCC[C@H](N)C(=O)N1CCC[C@H]1C(=O)N1CCC[C@H]1C(=O)NCC(=O)N[C@@H](Cc1cccs1)C(=O)N[C@@H](CO)C(=O)N[C@H](Cc1ccccc1)C(=O)N[C@@H](Cc1cccs1)C(=O)N[C@H](CCCNC(=N)N)C(=O)O [Example 41, Arg-Pro-Pro-Gly-Thi-Ser-DPhe-Thi-DArg] (H-RPPG[2Thi]S[dF][2Thi][dR]-OH)",,,,0,,,77,0.1,0.6,0.01
